According to patent US6552196B2, “Quinolone carboxylic acid derivatives” (Dong Wha Pharmaceutical Industrial Co., Ltd., priority 1997, dated 2003):

Tests used:
Assay type in all cases: cell-based
[1] = system: Staphylococcus aureus 121E; experiment: In vitro antibacterial activity against resistant strains (MIC); conditions: resistant strain Staphylococcus aureus 121E; 2-fold agar dilution; methicillin resistant strains 48 hours at 30° C.; read-out: minimum inhibitory concentration (MIC)
Procedure: (§1) 10^7 cfu/ml of bacteria were inoculated and cultured for 18 hours at 37° C. and then the antibacterial activities were measured. For the methicillin resistant strains the activities were measured after 48 hours of cultivation at 30° C. Hoechst Standard strains were used for the testings.

[2] = system: Staphylococcus aureus 693E; experiment: as above; conditions: resistant strain Staphylococcus aureus 693E; 2-fold agar dilution; methicillin resistant strains 48 hours at 30° C.; read-out: minimum inhibitory concentration (MIC)
Procedure: as §1

[3] = system: Staphylococcus aureus 694E; experiment: as above; conditions: resistant strain Staphylococcus aureus 694E; 2-fold agar dilution; methicillin resistant strains 48 hours at 30° C.; read-out: minimum inhibitory concentration (MIC)
Procedure: as §1

[4] = system: Staphylococcus aureus 88E; experiment: as above; conditions: resistant strain Staphylococcus aureus 88E; 2-fold agar dilution; methicillin resistant strains 48 hours at 30° C.; read-out: minimum inhibitory concentration (MIC)
Procedure: as §1

[5] = system: Staphylococcus aureus 701E; experiment: as above; conditions: resistant strain Staphylococcus aureus 701E; 2-fold agar dilution; methicillin resistant strains 48 hours at 30° C.; read-out: minimum inhibitory concentration (MIC)
Procedure: as §1

[6] = system: Staphylococcus aureus 690E; experiment: as above; conditions: resistant strain Staphylococcus aureus 690E; 2-fold agar dilution; methicillin resistant strains 48 hours at 30° C.; read-out: minimum inhibitory concentration (MIC)
Procedure: as §1

[7] = system: Staphylococcus aureus 697E; experiment: as above; conditions: resistant strain Staphylococcus aureus 697E; 2-fold agar dilution; methicillin resistant strains 48 hours at 30° C.; read-out: minimum inhibitory concentration (MIC)
Procedure: as §1

[8] = system: Staphylococcus aureus 695E; experiment: as above; conditions: resistant strain Staphylococcus aureus 695E; 2-fold agar dilution; methicillin resistant strains 48 hours at 30° C.; read-out: minimum inhibitory concentration (MIC)
Procedure: as §1

[9] = system: Staphylococcus aureus 303; experiment: as above; conditions: resistant strain Staphylococcus aureus 303; 2-fold agar dilution; methicillin resistant strains 48 hours at 30° C.; read-out: minimum inhibitory concentration (MIC)
Procedure: as §1

[10] = system: Staphylococcus epidermidis 178; experiment: as above; conditions: resistant strain Staphylococcus epidermidis 178; 2-fold agar dilution; methicillin resistant strains 48 hours at 30° C.; read-out: minimum inhibitory concentration (MIC)
Procedure: as §1

[11] = system: Staphylococcus aureus 179; experiment: as above; conditions: resistant strain Staphylococcus aureus 179; 2-fold agar dilution; methicillin resistant strains 48 hours at 30° C.; read-out: minimum inhibitory concentration (MIC)
Procedure: as §1

[12] = system: Staphylococcus aureus 241; experiment: as above; conditions: resistant strain Staphylococcus aureus 241; 2-fold agar dilution; methicillin resistant strains 48 hours at 30° C.; read-out: minimum inhibitory concentration (MIC)
Procedure: as §1

[13] = system: Staphylococcus aureus 256E; experiment: as above; conditions: resistant strain Staphylococcus aureus 256E; 2-fold agar dilution; methicillin resistant strains 48 hours at 30° C.; read-out: minimum inhibitory concentration (MIC)
Procedure: as §1

[14] = system: Staphylococcus aureus 293; experiment: as above; conditions: resistant strain Staphylococcus aureus 293; 2-fold agar dilution; methicillin resistant strains 48 hours at 30° C.; read-out: minimum inhibitory concentration (MIC)
Procedure: as §1

[15] = system: Staphylococcus aureus 208E; experiment: as above; conditions: resistant strain Staphylococcus aureus 208E; 2-fold agar dilution; methicillin resistant strains 48 hours at 30° C.; read-out: minimum inhibitory concentration (MIC)
Procedure: as §1

[16] = system: Staphylococcus aureus 8236; experiment: as above; conditions: resistant strain Staphylococcus aureus 8236; 2-fold agar dilution; methicillin resistant strains 48 hours at 30° C.; read-out: minimum inhibitory concentration (MIC)
Procedure: as §1

[17] = system: Staphylococcus epidermidis 291; experiment: as above; conditions: resistant strain Staphylococcus epidermidis 291; 2-fold agar dilution; methicillin resistant strains 48 hours at 30° C.; read-out: minimum inhibitory concentration (MIC)
Procedure: as §1

[18] = system: Staphylococcus aureus 703E; experiment: as above; conditions: resistant strain Staphylococcus aureus 703E; 2-fold agar dilution; methicillin resistant strains 48 hours at 30° C.; read-out: minimum inhibitory concentration (MIC)
Procedure: as §1

[19] = system: Staphylococcus aureus 692E; experiment: as above; conditions: resistant strain Staphylococcus aureus 692E; 2-fold agar dilution; methicillin resistant strains 48 hours at 30° C.; read-out: minimum inhibitory concentration (MIC)
Procedure: as §1

[20] = system: Streptococcus pyogens 77A; experiment: In vitro antibacterial activity (MIC), agar dilution; conditions: 2-fold agar dilution, Muller-Hinton agar, 18 hours at 37° C., read-out: minimum inhibitory concentration (MIC)
Procedure: as §1

[21] = system: Klebsiella aerogenes 1522E; experiment: as above; conditions: 2-fold agar dilution, Muller-Hinton agar, 18 hours at 37° C., read-out: minimum inhibitory concentration (MIC)
Procedure: as §1

Klebsiella oxytoca 1082E = experiment: as above; conditions: 2-fold agar dilution, Muller-Hinton agar, 18 hours at 37° C., read-out: minimum inhibitory concentration (MIC)
Procedure: as §1

[22] = system: Pseudomonas aeruginosa 1771; experiment: as above; conditions: 2-fold agar dilution, Muller-Hinton agar, 18 hours at 37° C., read-out: minimum inhibitory concentration (MIC)
Procedure: as §1

[23] = system: Staphylococcus aureus 503; experiment: as above; conditions: 2-fold agar dilution, Muller-Hinton agar, 18 hours at 37° C., read-out: minimum inhibitory concentration (MIC)
Procedure: as §1

[24] = system: Staphylococcus aureus 285; experiment: as above; conditions: 2-fold agar dilution, Muller-Hinton agar, 18 hours at 37° C., read-out: minimum inhibitory concentration (MIC)
Procedure: as §1

[25] = system: Pseudomonas aeruginosa 1592E; experiment: as above; conditions: 2-fold agar dilution, Muller-Hinton agar, 18 hours at 37° C., read-out: minimum inhibitory concentration (MIC)
Procedure: as §1

[26] = system: Enterobacter clocae 1321E; experiment: as above; conditions: 2-fold agar dilution, Muller-Hinton agar, 18 hours at 37° C., read-out: minimum inhibitory concentration (MIC)
Procedure: as §1

[27] = system: Streptococcus pyogens 308A; experiment: as above; conditions: 2-fold agar dilution, Muller-Hinton agar, 18 hours at 37° C., read-out: minimum inhibitory concentration (MIC)
Procedure: as §1

Esherichia coli DC0 = experiment: as above; conditions: 2-fold agar dilution, Muller-Hinton agar, 18 hours at 37° C., read-out: minimum inhibitory concentration (MIC)
Procedure: as §1

Salmonella typhimurium = experiment: as above; conditions: Salmonella enterica, 2-fold agar dilution, Muller-Hinton agar, 18 hours at 37° C., read-out: minimum inhibitory concentration (MIC)
Procedure: as §1

[28] = system: Streptococcus faecium MD 8b; experiment: as above; conditions: Enterococcus faecium, MD8B, 2-fold agar dilution, Muller-Hinton agar, 18 hours at 37° C., read-out: minimum inhibitory concentration (MIC)
Procedure: as §1

Esherichia coli TEM = experiment: as above; conditions: 2-fold agar dilution, Muller-Hinton agar, 18 hours at 37° C., read-out: minimum inhibitory concentration (MIC)
Procedure: as §1

[29] = system: Pseudomonas aeruginosa 9027; experiment: as above; conditions: 2-fold agar dilution, Muller-Hinton agar, 18 hours at 37° C., read-out: minimum inhibitory concentration (MIC)
Procedure: as §1

Esherichia coli 1507E = experiment: as above; conditions: 2-fold agar dilution, Muller-Hinton agar, 18 hours at 37° C., read-out: minimum inhibitory concentration (MIC)
Procedure: as §1

Esherichia coli 078 = experiment: as above; conditions: 2-fold agar dilution, Muller-Hinton agar, 18 hours at 37° C., read-out: minimum inhibitory concentration (MIC)
Procedure: as §1

[30] = system: Staphylococcus aureus SG511; experiment: as above; conditions: 2-fold agar dilution, Muller-Hinton agar, 18 hours at 37° C., read-out: minimum inhibitory concentration (MIC)
Procedure: as §1

Enterobacter clocae P99 = experiment: as above; conditions: 2-fold agar dilution, Muller-Hinton agar, 18 hours at 37° C., read-out: minimum inhibitory concentration (MIC)
Procedure: as §1

[31] = system: Pseudomonas aeruginosa 1771M; experiment: as above; conditions: Pseudomonas aeruginosa, 1771M, 18 h, read-out: minimum inhibitory concentration (MIC)
Procedure: as §1

With CCON=C1CN(c2c(F)c(N)c3c(=O)c(C(=O)O)cn(C4CC4)c3c2F)CC12CNC2.CS(=O)(=O)O [Example 9, 1-Cyclopropyl-5-amino-6,8-difluoro-7-[8-(ethoxyimino)-2,6-diazaspiro[3,4]oct-6-yl]-4-oxo-1,4-dihydro-3-quinolinecarboxylic acid methanesulfonate] the MIC [1] was 0.013 µg/mL, the MIC [2] was 0.013 µg/mL and the MIC [3] was 0.013 µg/mL. The MIC [4] was 0.007 µg/mL, the MIC [5] was 0.013 µg/mL and the MIC [6] was 0.007 µg/mL. The MIC [7] was 0.004 µg/mL, the MIC [8] was 0.013 µg/mL and the MIC [9] was 0.098 µg/mL. It also gave an MIC [10] of 0.391 µg/mL, an MIC [11] of 0.098 µg/mL and an MIC [12] of 0.098 µg/mL. For the same compound, the MIC [13] was 0.013 µg/mL, the MIC [14] was 0.098 µg/mL and the MIC [15] was 0.013 µg/mL. It also gave an MIC [16] of 0.098 µg/mL, an MIC [17] of 0.391 µg/mL and an MIC [18] of 0.013 µg/mL. For the same compound, the MIC [19] was 0.007 µg/mL, the MIC [20] was 0.004 µg/mL and the MIC [21] was 0.049 µg/mL. It also gave an MIC (Klebsiella oxytoca 1082E) of less than 0.002 µg/mL, an MIC [22] of 0.781 µg/mL and an MIC [23] of less than 0.002 µg/mL. It also gave an MIC [24] of 0.007 µg/mL, an MIC [25] of 0.781 µg/mL and an MIC [26] of 0.007 µg/mL. It also gave an MIC [27] of 0.025 µg/mL, an MIC (Esherichia coli DC0) of 0.195 µg/mL and an MIC (Salmonella typhimurium) of 0.007 µg/mL. For the same compound, the MIC [28] was 0.049 µg/mL, the MIC (Esherichia coli TEM) was 0.013 µg/mL and the MIC [29] was 0.781 µg/mL. It also gave an MIC (Esherichia coli 1507E) of 0.013 µg/mL, an MIC (Esherichia coli 078) of 0.004 µg/mL and an MIC [30] of less than 0.002 µg/mL. The MIC (Enterobacter clocae P99) was 0.007 µg/mL and the MIC [31] was 0.391 µg/mL.
